Assay results published in patent US20260224547A1, “COMPOSITIONS COMPRISING ANATABINE AND USES THEREOF” (Philip Morris Products S.A., priority 2021, published 2026).

How the values were obtained:
[1] = tested on: HEK-293, SH-SY5Y, primary human keratinocytes, THP-1 differentiated with PMA; assay: Cell viability, CellTiterGlo (ATP content), used to select concentrations; assay type: cell-based; details: 24 hours of exposure; no more than 400 μM anatabine free base
[2] = tested on: PMA-differentiated THP-1 cell lysates; assay: DIA mass spectrometry proteomics of cell lysates; assay type: cell-based, human; details: 100, 200, 300, 400 μM for 24 hours; adjusted p-value<0.05
Procedure: To confirm the increased expression of target genes of NRF2 transcription factor at the protein level, proteins were profiled by untargeted mass spectrometry in PMA-differentiated THP-1 cell lysates after anatabine treatment (100, 200, 300, 400 μM) for 24 hours.
Samples were processed using PREOMICS IST KIT (PreOmics GmbH, Planegg/Martinsried, Germany) as described in the manufacturer's protocol. Briefly, 100 μl of PREOMICS LYSE BUFFER were added to the cells, samples were incubated at 90° C. for 10 min and sonified for 30 sec with a sonifier (Brandson, Danbury, Connecticut, USA) at 10% amplitude. Protein amount was determined using the PIERCE 660 NM PROTEIN ASSAY (Pierce Biotechnology, Rockford, USA) following the manufacturer's protocol. Samples were normalized to 0.5 μg/μl and 40 μg was further processed with PREOMICS IST KIT with a 3 h trypsin digestion. Peptides were purified on the cartridge, dried overnight on a vacuum concentrator (Martin Christ, Germany) and re-suspended in 50 μL of LC SOLUTION (Biognosys AG, Switzerland). 1 μL of iRT reference peptides (Biognosys AG, Switzerland) was added to 19 μL of processed sample. Samples were analysed with an EASY 1000 NANOLC (ThermoFisher Scientific) connected online to a Q-Exactive (ThermoFisher Scientific). […]

NRF2 = NRF2 luciferase assay (NRF2/ARE reporter cell line); assay type: cell-based, human
Excerpt: A HEK-293 NRF2/ARE luciferase reporter cell line was acquired from Signosis (USA). According to Signosis, this NRF2 luciferase reporter stable cell line had been stably transfected with pTA-ARE-luciferase reporter vector, which contains 4 repeats of antioxidant response binding sites, a minimal promoter upstream of the firefly luciferase coding region, along with a hygromycin expression vector. Following selection, the hygromycin resistant clones were subsequently screened for TBHQ-induced luciferase activity. The clone with the highest fold induction was selected and expanded to produce this stable cell line.
4, 8 or 24 hours after stimulation of the NRF2 reporter cells luminescence was measured using a FLUOstar Omega plate reader.

NRF2 reporter cells = assay: Cell viability measured with ATP assay alongside NRF2 translocation (FIG. 4 to 7)
Excerpt: FIGS. 5A to 5C: bar and line graphs showing NRF2 translocation presented as log 2 fold change compared to vehicle control (bars) and cell viability measured with ATP assay and presented as a percentage of the vehicle control (line) for anatabine (FIG. 5A), dimethyl fumarate (AlfaAesar) (FIG. 5B), and nornicotine (FIG. 5C).
FIGS. 6A to 6C: bar graphs showing NRF2 translocation presented as log 2 fold change compared to vehicle control (bars) and cell viability measured with ATP assay and presented as a percentage of the vehicle control (line) for anatabine (FIG. 6A), dimethyl fumarate (Sigma) (FIG. 6B), and sulforaphane (FIG. 6C).
FIGS. 7A and […]: bar graphs showing NRF2 translocation presented as log 2 fold change compared to vehicle control (bars) and cell viability measured with ATP assay and presented as a percentage of the vehicle control (line) for cotinine (FIG. 7A) and nicotine (FIG. 7B).

In the case of `C1=CCC(c2cccnc2)NC1` (racemic) [anatabine, 1,2,3,6-Tetrahydro-2,3′-bipyridine], the “cell viability (ATP content vs medium-only control)” value [1] is reported as at least 80%, the “intracellular protein products of NRF2 target genes HMOX1, GCLM, NQO1 and TXNRD1” value [2] is reported as “significantly expressed” and the “maximum log 2-fold change of NRF2 activation” value (NRF2; at 12.5 μM for sulforaphane, 125 μM and 250 μM for DMF, 1000 μM for anatabine) is reported as “over 7”. The “NRF2 luciferase reporter signal” value (NRF2; concentration series) was “concentration-dependent rise”, the “cell viability, percentage of the vehicle control” value (NRF2 reporter cells; 250 μM) was “above 85%” and the “cell viability, percentage of the vehicle control” value (NRF2 reporter cells; 500 μM) was “above 85%”. The “cell viability at higher concentrations” value (NRF2 reporter cells; higher concentrations of the tested range) was “high cell viability”.
